Test: PORTICO PK substudy: steady-state plasma macitentan and ACT-132577
Type: in vivo, human
Description: It was planned to enroll at least 20 patients who were on steady-state treatment with macitentan (i.e., at least 4 weeks) into the PK substudy. The substudy was conducted in consenting patients from all centers across all regions who agreed to participate. The substudy consisted of the following periods:
PK assessments period: PK assessments were to be performed after OL study treatment had been taken for at least 4 weeks. The substudy comprised two visits (Day 1: Enrollment and Day 2: Conclusion). See, FIG. 2. Subject eligibility was first checked on Day 1 of the PK substudy prior to the start of assessments.
PK substudy: On Day 1 of the PK substudy, the study treatment was required to be taken directly after the pre-dose blood sample. On Day 2 of the PK substudy, study treatment was required to be taken after the collection of the last PK blood sample (24 hours post Day 1 dose).
F3. Pharmacokinetic Endpoints for Macitentan and its Active Metabolite ACT-132577 • The area under the plasma concentration-time curve during one dosing interval (AUCt). • Maximum plasma concentration (Cmax) during a dosing interval. • The time to reach maximum plasma concentration (tmax) during a dosing interval.
(i) Timing for sampling: For the PK assessment, blood samples were drawn at the following time points: • PK substudy Day 1: Immediately before study treatment administration in the morning (pre-dose) and 1 h, 3 h, 5 h, 6 h, 7 h, 8 h, 9 h, 10 h, 12 h, and 14 h post-dose. • PK substudy Day 2: 24 h post-dose.
(iii) Bioanalysis: A validated liquid chromatography coupled to mass spectrometry method was used for determining the concentrations of macitentan and its metabolite ACT-132577 in plasma. The limit of quantification (LOQ) for both analytes was 1 ng/mL.
The measured individual plasma concentrations of macitentan and its metabolite ACT-132577 were used to directly obtain Cmax and tmax. AUCT was calculated according to the linear trapezoidal rule using the measured concentration-time values above the LOQ during one dosing interval. The PK variables were calculated on the basis of the real (actual) blood sampling time points. For mean value calculations, all values below the LOQ (below the limit of quantification (BLQ) values) were set to zero if ≤50% of the values at a given time point were BLQ. If >50% of the values at a given time point were BLQ, no mean value was calculated. Mean concentration-time profiles were generated using these criteria. The individual and mean plasma concentration-time profiles were plotted on a linear scale. The derived PK variables for macitentan and ACT-132577 (AUCT, Cmax, tmax) are listed by patient. Plasma concentrations per time point were summarized using arithmetic mean, minimum, median, maximum, standard deviation (SD), standard error (SE), and two-sided 95% confidence interval of the mean. […] (*For tmax the geometric mean and its 95% confidence interval were not calculated).

Structure (SMILES): NS(=O)(=O)Nc1ncnc(OCCOc2ncc(Br)cn2)c1-c1ccc(Br)cc1 [ACT-132577, aprocitentan]
- Plasma exposure in PoPH patients compared with other forms of PAH / other macitentan studies: consistent between PoPH patients and patients with other forms of PAH
- Trough plasma concentration, mean±SD (OL macitentan 10 mg o.d. at least 4 weeks, PoPH patients, n=8): 737.4 ± 190.0 ng/mL
- Cmax (human, plasma, oral, macitentan 10 mg o.d., PoPH patients, PKS 10 patients, read-out: Cmax, geometric mean (95% confidence interval)): 870 ng/mL
- Tmax (human, plasma, oral, macitentan 10 mg o.d., PoPH patients, PKS 10 patients, read-out: tmax, median (range)): 6.5 h
- AUCT, geometric mean (95% confidence interval) (one dosing interval, macitentan 10 mg o.d., PoPH patients): 18100.0 ng·h/mL

Reference: US20220257595A1, “MACITENTAN FOR USE IN TREATING PORTOPULMONARY HYPERTENSION” (ACTELION PHARMACEUTICALS LTD, priority 2019, published 2022)
